In PubChem BioAssay (NCI):
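Dose response: 5 concentrations. Exposure: 48 h. Format: 96-well plates. Endpoint: linear interpolation; highest concentration if not reached. TGI denotes the concentration required for complete inhibition of growth.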

Experiments:
Test in all cases: NCI tumour cell line growth inhibition, 48 h
[1] = test system: MALME-3M melanoma
[2] = test system: CCRF-CEM leukemia
[3] = test system: TK-10 renal
[4] = test system: HCC-2998 colon
[5] = test system: SF-268 CNS
[6] = test system: SN12C renal
[7] = test system: M19-MEL melanoma
[8] = test system: DLD-1 colon
[9] = test system: NCI-H522 lung
[10] = test system: UACC-62 melanoma
[11] = test system: LOX IMVI melanoma
[12] = test system: OVCAR-4 ovarian
[13] = test system: XF 498 CNS
[14] = test system: NCI-H460 lung
[15] = test system: OVCAR-3 ovarian
[16] = test system: UO-31 renal
[17] = test system: MOLT-4 leukemia
[18] = test system: SF-539 CNS
[19] = test system: EKVX NSCLC
[20] = test system: LXFL 529 NSCLC
[21] = test system: HCT-116 colon
[22] = test system: SK-MEL-28 melanoma
[23] = test system: M14 melanoma
[24] = test system: SK-MEL-2 melanoma
[25] = test system: RXF 393 renal
[26] = test system: SK-OV-3 ovarian
[27] = test system: KM12 colon
[28] = test system: HT29 colon
[29] = test system: HL-60(TB) leukemia
[30] = test system: A498 renal
[31] = test system: U251 CNS
[32] = test system: SNB-75 CNS
[33] = test system: SNB-78 CNS
[34] = test system: HOP-62 NSCLC
[35] = test system: K-562 leukemia
[36] = test system: NCI-H23 lung
[37] = test system: ACHN renal
[38] = test system: UACC-257 melanoma
[39] = test system: SR leukemia
[40] = test system: SNB-19 CNS
[41] = test system: OVCAR-5 ovarian
[42] = test system: DMS 114 small cell lung
[43] = test system: PC-3 prostate
[44] = test system: NCI/ADR-RES ovarian
[45] = test system: MCF7 breast
[46] = test system: BT-549 breast
[47] = test system: T-47D breast
[48] = test system: A549 NSCLC
[49] = test system: SW-620 colon
[50] = test system: HS 578T breast
[51] = test system: MDA-MB-435
[52] = test system: DU-145 prostate
[53] = test system: CAKI-1 renal
[54] = test system: MDA-N
[55] = test system: IGROV1 ovarian
[56] = test system: 786-0 renal
[57] = test system: SF-295 CNS
[58] = test system: RPMI-8226 leukemia
[59] = test system: COLO 205 colon
[60] = test system: HCT-15 colon
[61] = test system: HOP-92 NSCLC
[62] = test system: SK-MEL-5 melanoma
[63] = test system: OVCAR-8 ovarian
[64] = test system: MDA-MB-231 breast
[65] = test system: NCI-H226 lung

Q: For `Cc1cc(C)nc(NS(=O)(=O)c2ccc(NC(=O)c3cccc4c(Nc5ccc(S(=O)(=O)Nc6cc(C)on6)cc5)c5ccccc5nc34)cc2)n1`, which TGI [1] is on record?
A: 44.7 µM

Q: What about the TGI [2] of the same molecule?
A: 75.7 µM

Q: And the TGI [3]?
A: > 100 µM

Q: What about the TGI [4] of the same molecule?
A: 29.4 µM

Q: And the TGI [5]?
A: 65.2 µM

Q: What about the TGI [6] of the same molecule?
A: 61.8 µM

Q: What about the TGI [7] of the same molecule?
A: 62.4 µM

Q: What about the TGI [8] of the same molecule?
A: > 100 µM

Q: What about the TGI [9] of the same molecule?
A: 32.5 µM

Q: And the TGI [10]?
A: 40.9 µM

Q: And the TGI [11]?
A: 35.6 µM

Q: And the TGI [12]?
A: 50.2 µM

Q: What about the TGI [13] of the same molecule?
A: 47.6 µM

Q: And the TGI [14]?
A: 59.9 µM

Q: What about the TGI [15] of the same molecule?
A: 38.9 µM

Q: And the TGI [16]?
A: > 100 µM

Q: And the TGI [17]?
A: 86.4 µM

Q: And the TGI [18]?
A: 35.7 µM

Q: And the TGI [19]?
A: 75.6 µM

Q: And the TGI [20]?
A: 35.5 µM

Q: What about the TGI [21] of the same molecule?
A: 84 µM

Q: What about the TGI [22] of the same molecule?
A: 50 µM

Q: And the TGI [23]?
A: 47.5 µM

Q: And the TGI [24]?
A: 40 µM

Q: And the TGI [25]?
A: 39.6 µM

Q: What about the TGI [26] of the same molecule?
A: 75.2 µM

Q: And the TGI [27]?
A: 30.4 µM

Q: What about the TGI [28] of the same molecule?
A: 46.7 µM

Q: What about the TGI [29] of the same molecule?
A: 68.4 µM

Q: And the TGI [30]?
A: 68.5 µM

Q: What about the TGI [31] of the same molecule?
A: 40.2 µM

Q: And the TGI [32]?
A: 48.9 µM

Q: What about the TGI [33] of the same molecule?
A: > 100 µM

Q: What about the TGI [34] of the same molecule?
A: 45.4 µM

Q: And the TGI [35]?
A: 80.6 µM

Q: What about the TGI [36] of the same molecule?
A: 42.6 µM

Q: And the TGI [37]?
A: > 100 µM

Q: What about the TGI [38] of the same molecule?
A: 47.2 µM

Q: What about the TGI [39] of the same molecule?
A: 80.3 µM

Q: And the TGI [40]?
A: 46.7 µM

Q: And the TGI [41]?
A: 34 µM

Q: And the TGI [42]?
A: 39.8 µM

Q: `Cc1ccc(/C(C#N)=C/c2cccc([N+](=O)[O-])c2)cc1` was tested. Which TGI [1] did it give?
A: > 100 µM

Q: What about the TGI [3] of the same molecule?
A: > 100 µM

Q: And the TGI [4]?
A: > 100 µM

Q: What about the TGI [5] of the same molecule?
A: > 100 µM

Q: What about the TGI [43] of the same molecule?
A: > 100 µM

Q: What about the TGI [6] of the same molecule?
A: > 100 µM

Q: And the TGI [44]?
A: > 100 µM

Q: What about the TGI [45] of the same molecule?
A: > 100 µM

Q: And the TGI [9]?
A: > 100 µM

Q: What about the TGI [46] of the same molecule?
A: > 100 µM

Q: And the TGI [10]?
A: > 100 µM

Q: And the TGI [47]?
A: > 100 µM

Q: What about the TGI [48] of the same molecule?
A: > 100 µM

Q: What about the TGI [49] of the same molecule?
A: > 100 µM

Q: And the TGI [50]?
A: 65 µM

Q: And the TGI [11]?
A: > 100 µM

Q: And the TGI [51]?
A: > 100 µM

Q: What about the TGI [12] of the same molecule?
A: > 100 µM

Q: And the TGI [52]?
A: > 100 µM

Q: And the TGI [53]?
A: > 100 µM

Q: And the TGI [14]?
A: > 100 µM

Q: And the TGI [15]?
A: > 100 µM

Q: And the TGI [54]?
A: > 100 µM

Q: And the TGI [55]?
A: > 100 µM

Q: What about the TGI [16] of the same molecule?
A: > 100 µM

Q: What about the TGI [18] of the same molecule?
A: > 100 µM

Q: And the TGI [19]?
A: > 100 µM

Q: And the TGI [56]?
A: > 100 µM

Q: What about the TGI [21] of the same molecule?
A: > 100 µM

Q: What about the TGI [57] of the same molecule?
A: 67.3 µM

Q: And the TGI [22]?
A: > 100 µM

Q: What about the TGI [58] of the same molecule?
A: > 100 µM

Q: What about the TGI [23] of the same molecule?
A: > 100 µM

Q: What about the TGI [24] of the same molecule?
A: > 100 µM

Q: What about the TGI [25] of the same molecule?
A: 41 µM

Q: What about the TGI [26] of the same molecule?
A: > 100 µM

Q: What about the TGI [27] of the same molecule?
A: > 100 µM

Q: What about the TGI [28] of the same molecule?
A: > 100 µM

Q: And the TGI [30]?
A: > 100 µM

Q: What about the TGI [31] of the same molecule?
A: > 100 µM

Q: What about the TGI [32] of the same molecule?
A: 39.6 µM

Q: What about the TGI [59] of the same molecule?
A: > 100 µM

Q: And the TGI [60]?
A: > 100 µM

Q: And the TGI [34]?
A: > 100 µM

Q: What about the TGI [35] of the same molecule?
A: > 100 µM

Q: And the TGI [36]?
A: > 100 µM

Q: And the TGI [61]?
A: > 100 µM

Q: What about the TGI [37] of the same molecule?
A: > 100 µM

Q: What about the TGI [38] of the same molecule?
A: > 100 µM

Q: And the TGI [62]?
A: > 100 µM

Q: What about the TGI [39] of the same molecule?
A: > 100 µM

Q: And the TGI [63]?
A: > 100 µM

Q: And the TGI [64]?
A: 52.8 µM

Q: And the TGI [65]?
A: > 100 µM

Q: What about the TGI [40] of the same molecule?
A: > 100 µM

Q: What about the TGI [41] of the same molecule?
A: > 100 µM
